Assay results taken from patent US5416076A, “S-adenosyl methionine decarboxylase inhibitors” (Merrell Dow Pharmaceuticals Inc., priority 1989, dated 1995).

System: Trypanosoma brucei
Assay: Treatment of Trypanosoma Brucei-infected mice
Assay type: in vivo, T. brucei (EATRO 110) in mice (CD-1, males)
Settings: for Mice cured/Total: cured = surviving 30 days after all controls dead
Excerpt: Illustrative of the effects of a compound of this invention (i.e., cis-5'-deoxy-5'-(4-amino-2-butenyl )methylaminoadenosine, identified below as MDL Compound) for the treatment of African Trypanosomiasis is an assay using Trypanosoma brucei-infected mice, as follows:
(a) includes those animals that died.
(b) MDL Compound was given intraperitoneally three times per day (8:30
a.m., 12:30 p.m. and 4:30 p.m,) for three consecutive days.
(c) Eflornithine was given in drinking water for three days.
Mice (20-22 g, CD-1, males) were infected with 2.5×10^5 T. brucei (EATRO 110) by intraperitoneal injection. Drug treatment commenced 24 h after infection. Mice surviving for 30 days after all controls were dead were considered cured. This method for drug testing is that of Bacchi et al. (1980) Science 210: 332-334, and successfully predicted the utility of eflornithine in human trypanosomiasis.

NCCCC(N)(C(=O)O)C(F)F (centres unmarked) [Eflornithine, reference compound]
Mice cured/Total (2% in drinking water for three days): 3/5

CN(C/C=C\CN)C[C@H]1O[C@@H](n2cnc3c(N)ncnc32)[C@H](O)[C@@H]1O [MDL Compound, CIS-5'-DEOXY-5'(4-AMINO-2-BUTENYL)METHYLAMINOADENOSINE]
Mice cured/Total (dose 10 (unit not given), intraperitoneally three times per day for three consecutive days): 2/5
Mice cured/Total (dose 20 (unit not given), intraperitoneally three times per day for three consecutive days): 3/5
Mice cured/Total (dose 50 (unit not given), intraperitoneally three times per day for three consecutive days): 4/5
Days of Survival (includes those animals that died) (dose 50 (unit not given), intraperitoneally three times per day for three consecutive days, per animal): 12 days
